Where two headings read alike, the source gives them in different places.
Legend:
[1] = system: Pyricularia oryzae; assay: whole plant or invertebrate; assay type: in vivo; details: 120 h, read-out: efficacy
[2] = system: Leptosphaeria nodorum; assay: Leptosphaeria nodorum test (wheat) / protective; assay type: in vivo; details: Parastagonospora nodorum, active compound concentration 500 ppm, evaluation 7-9 days after inoculation, read-out: efficacy
Protocol: Thereafter, the plants are placed in a greenhouse at 90% relative atmospheric humidity and a temperature of 22° C.

[3] = logP by LC-MS on reversed-phase columns (C 18), method [b], acidic range pH 2.7; assay type: physicochemical; details: pH 2.7, log p
Protocol: (§1) The logP values were determined in accordance with EEC Directive 79/831 Annex V.A8 by HPLC (High Performance Liquid Chromatography) on reversed-phase columns (C 18), using the methods below:
[b] The LC-MS determination in the acidic range is carried out at pH 2.7 using the mobile phases 0.1% aqueous formic acid and acetonitrile (contains 0.1% formic acid), linear gradient from 10% acetonitrile to 95% acetonitrile.

[4] = system: Rhizoctonia solani; assay: Rhizoctonia test (rice) / protective; assay type: in vivo; details: 96 h, active compound concentration 250 ppm, evaluation 4 days after inoculation, read-out: efficacy
[5] = system: Fusarium proliferatum; assay: Production of fumonisin FB1 by Fusarium proliferatum (microtitre plates; FB1 by HPLC-MS/MS, growth by OD620); assay type: cell-based; details: Fusarium proliferatum, 144 h
[6] = system: Cochliobolus miyabeanus; assay: Cochliobolus test (rice) / protective; details: Bipolaris oryzae, in Oryza sativa, 96 h, read-out: efficacy
Protocol: Cochliobolus Test (Rice)/Protective • Solvent: 28.5 parts by weight of acetone • Emulsifier: 1.5 parts by weight of alkylaryl polyglycol ether
1 day after the treatment, the plants are inoculated with an aqueous spore suspension of Cochliobolus miyabeanus. The plants are then placed in a greenhouse at 100% relative atmospheric humidity and 25° C.
Evaluation is carried out 4 days after the inoculation.

[7] = system: Pyrenophora teres; assay: Pyrenophora teres test (barley) / protective; assay type: in vivo; details: 192 h, active compound concentration 500 ppm, evaluation 8 days after inoculation, read-out: efficacy
Protocol: After the spray coating has dried on, the plants are sprayed with a spore suspension of Pyrenophora teres. The plants remain in an incubation cabinet for 48 hours at 20° C. and 100% relative atmospheric humidity.

[8] = system: Venturia inaequalis; assay: Venturia test (apple) / protective; assay type: in vivo; details: 240 h, active compound concentration 100 ppm, evaluation 10 days after inoculation, read-out: efficacy
Protocol: After the spray coating has dried on, the plants are inoculated with an aqueous conidia suspension of the apple scab pathogen Venturia inaequalis and then remain for 1 day in an incubation cabinet at about 20° C. and 100% relative atmospheric humidity.

[9] = system: Alternaria solani; assay: Alternaria test (tomato) / protective; assay type: in vivo; details: 72 h, active compound concentration 100 ppm, evaluation 3 days after inoculation, read-out: efficacy
Protocol: The plants are then placed in an incubation cabinet at about 20° C. and 100% relative atmospheric humidity.

[10] = system: Sphaerotheca fuliginea; assay: Sphaerotheca test (cucumber) / protective; assay type: in vivo; details: Podosphaera fuliginea, 168 h, active compound concentration 500 ppm, evaluation 7 days after inoculation, read-out: efficacy
Protocol: The plants are subsequently placed in a greenhouse at 70% relative atmospheric humidity and a temperature of 23° C.

[11] = logP by HPLC on reversed-phase columns (C 18), method [a], acidic range pH 2.3; assay type: physicochemical; details: pH 2.3, logP (pH2.3)
Protocol: as §1
[a] The determination is carried out in the acidic range at pH 2.3 using the mobile phases 0.1% aqueous phosphoric acid and acetonitrile, linear gradient from 10% acetonitrile to 95% acetonitrile.

[12] = logP by LC-MS on reversed-phase columns (C 18), method [c], neutral range pH 7.8; assay type: physicochemical; details: pH 7.8
Protocol: as §1
[c] The LC-MS determination in the neutral range is carried out at pH 7.8 using the mobile phases 0.001 molar aqueous ammonium bicarbonate solution and acetonitrile, linear gradient from 10% acetonitrile to 95% acetonitrile.

[13] = system: Fusarium graminearum; assay: microbe, parasite or virus in culture; assay type: cell-based; details: 168 h, read-out: DON/AcDON-inhibitory activity
[14] = logP by HPLC on reversed-phase columns (C 18), method [a], acidic range pH 2.3; assay type: physicochemical; details: pH 2.94, logP (pH2.94)
[15] = growth, OD620 at the beginning and after 6 days, read-out: pI50 growth (converted)

With `COC(C)c1cccc(Nc2ncc(Br)c(NC3CCC3)n2)c1` (stereo not drawn) [Example 20] the pest or weed control at 250 ppm [1] was ≥ 80%, the pest or weed control at 500 ppm [2] was ≥ 70% and the chromatographic logP [3] was 2.46. The pest or weed control at 250 ppm [4] was ≥ 80%, the IC50 ([5]; read-out: pI50 Fum) was 0.794 µM and the IC50 [5, 15] was 3.98 µM. For the same compound, the pest or weed control at 250 ppm [6] was ≥ 80%, the pest or weed control at 500 ppm [7] was ≥ 70% and the pest or weed control at 100 ppm [8] was ≥ 70%. For the same compound, the pest or weed control at 100 ppm [9] was ≥ 70%.

With `CC[S+]([O-])c1cccc(Nc2ncc(Cl)c(NC3CCC3)n2)c1` (stereo not drawn) [Example 28, 5-Chloro-N^4-cyclobutyl-N^2-[3-(ethylsulphinyl)phenyl]pyrimidine-2,4-diamine] the pest or weed control at 250 ppm [1] was ≥ 80%, the pest or weed control at 500 ppm [2] was ≥ 70% and the chromatographic logP [3] was 1.76. The pest or weed control at 250 ppm [4] was ≥ 80%, the pest or weed control at 500 ppm [10] was ≥ 70% and the IC50 ([5]; read-out: pI50 Fum) was 3.98 µM. The IC50 [5, 15] was 20 µM, the pest or weed control at 250 ppm [6] was ≥ 80% and the pest or weed control at 500 ppm [7] was ≥ 70%. For the same compound, the chromatographic logP [11] was 1.76, the pest or weed control at 100 ppm [8] was ≥ 70% and the pest or weed control at 100 ppm [9] was ≥ 70%.

For `COCc1cccc(Nc2ncc(Cl)c(N(C)C3CC3)n2)c1` [Example 58], the chromatographic logP [12] was 3.76, the pest or weed control at 500 ppm [2] was ≥ 70% and the chromatographic logP [3] was 2.7. The pest or weed control at 500 ppm [10] was ≥ 70%, the pest or weed control at 500 ppm [7] was ≥ 70% and the inhibition at 50 µM [13] was > 80%. The pest or weed control at 100 ppm [8] was ≥ 70%.

In the case of `COC(C)(C)c1cccc(Nc2ncc(Cl)c(NC3CC3)n2)c1` [Example 59], the chromatographic logP [12] is reported as 3.5, the pest or weed control at 250 ppm [1] is reported as ≥ 80% and the pest or weed control at 500 ppm [2] is reported as ≥ 70%. For the same compound, the chromatographic logP [3] was 2.16, the pest or weed control at 250 ppm [4] was ≥ 80% and the pest or weed control at 500 ppm [10] was ≥ 70%. For the same compound, the IC50 ([5]; read-out: pI50 Fum) was 0.501 µM, the IC50 [5, 15] was 3.16 µM and the pest or weed control at 250 ppm [6] was ≥ 80%. For the same compound, the pest or weed control at 500 ppm [7] was ≥ 70%, the pest or weed control at 100 ppm [8] was ≥ 70% and the pest or weed control at 100 ppm [9] was ≥ 70%.

In the case of `COCCc1cccc(Nc2ncc(Cl)c(NC3CC3)n2)c1` [Example 60], the pest or weed control at 250 ppm [1] is reported as ≥ 80%, the pest or weed control at 500 ppm [2] is reported as ≥ 70% and the chromatographic logP [3] is reported as 2.41. The pest or weed control at 250 ppm [4] was ≥ 80%, the pest or weed control at 500 ppm [10] was ≥ 70% and the IC50 ([5]; read-out: pI50 Fum) was 0.631 µM. The IC50 [5, 15] was 1.58 µM, the pest or weed control at 250 ppm [6] was ≥ 80% and the pest or weed control at 500 ppm [7] was ≥ 70%. The pest or weed control at 100 ppm [8] was ≥ 70% and the pest or weed control at 100 ppm [9] was ≥ 70%.

In the case of `CCC(SC)c1cccc(Nc2ncc(Cl)c(NC3CC3)n2)c1` (stereo not drawn) [Example 61, 5-Chloro-N^4-cyclopropyl-N^2-{3-[1-(methylsulphanyl)propyl]phenyl}pyrimidine-2,4-diamine], the pest or weed control at 250 ppm [1] is reported as ≥ 80%, the pest or weed control at 500 ppm [2] is reported as ≥ 70% and the chromatographic logP [3] is reported as 2.94. The pest or weed control at 250 ppm [4] was ≥ 80%, the pest or weed control at 500 ppm [10] was ≥ 70% and the chromatographic logP [11] was 2.59. For the same compound, the inhibition at 50 µM [13] was > 80%, the pest or weed control at 100 ppm [8] was ≥ 70% and the pest or weed control at 100 ppm [9] was ≥ 70%.

For `CCC(SC)c1cccc(Nc2ncc(C(F)(F)F)c(NC3CC3)n2)c1` (stereo not drawn) [Example 62], the pest or weed control at 250 ppm [1] was ≥ 80%, the pest or weed control at 500 ppm [2] was ≥ 70% and the chromatographic logP [3] was 4.23. The pest or weed control at 250 ppm [4] was ≥ 80%, the pest or weed control at 500 ppm [10] was ≥ 70% and the IC50 ([5]; read-out: pI50 Fum) was 15.8 µM. The IC50 [5, 15] was > 50.1 µM, the pest or weed control at 250 ppm [6] was ≥ 80% and the pest or weed control at 100 ppm [8] was ≥ 70%. For the same compound, the pest or weed control at 100 ppm [9] was ≥ 70%.

For `COCc1cccc(Nc2ncc(Cl)c(NCCF)n2)c1` [Example 138], the chromatographic logP [12] was 2.57, the pest or weed control at 250 ppm [1] was ≥ 80% and the pest or weed control at 500 ppm [2] was ≥ 70%. For the same compound, the chromatographic logP [3] was 1.48, the pest or weed control at 500 ppm [10] was ≥ 70% and the pest or weed control at 500 ppm [7] was ≥ 70%. For the same compound, the inhibition at 50 µM [13] was > 80%, the pest or weed control at 100 ppm [8] was ≥ 70% and the pest or weed control at 100 ppm [9] was ≥ 70%.

With `COCC(O)c1cccc(Nc2ncc(C(F)(F)F)c(NC3CC3)n2)c1` (stereo not drawn) [Example 195] the chromatographic logP [12] was 2.64, the pest or weed control at 250 ppm [1] was ≥ 80% and the pest or weed control at 500 ppm [2] was ≥ 70%. For the same compound, the chromatographic logP [3] was 1.97, the pest or weed control at 250 ppm [4] was ≥ 80% and the pest or weed control at 500 ppm [10] was ≥ 70%. The pest or weed control at 500 ppm [7] was ≥ 70% and the inhibition at 50 µM [13] was > 80%.

In the case of `CC(O)c1cccc(Nc2ncc(Cl)c(NC3CC3)n2)c1` (stereo not drawn) [Ic-IV-1, 1-(3-{[5-Chloro-4-(cyclopropylamino)pyrimidin-2-yl]amino}phenyl)ethanol], the chromatographic logP [14] is reported as 1.25.

`CCC[S+]([O-])c1cccc(Nc2ncc(C(F)(F)F)c(Cl)n2)c1` (stereo not drawn) [Xb-1, 4-Chloro-N-[3-(propylsulphinyl)phenyl]-5-(trifluoromethyl)pyrimidin-2-amine] gave a chromatographic logP [14] of 1.76.

Source: patent US20110245284A1, “Alkoxy- and Alkylthio-Substituted Anilinopyrimidines” (Bayer CropScience AG, priority 2008, published 2011)
